Measurements published in BindingDB's records for patent US20240166639 (Leukos Biotech, 2024).

How the values were obtained:
[1] = target: 5-hydroxytryptamine receptor 1B (Homo sapiens, UniProt P28222); assay: Binding at Human Serotonin Receptors Competition Binding in Human 5-HT1B Receptor Assay
Experimental: Serotonin 5-HT1B receptor competition binding experiments were carried out in a polypropylene 96-well plate. […] The reaction mixture (Vt: 250 μl/well) was incubated at 25° C. for 90 min, 200 μL was transfered to GF/C 96-well plate (Millipore, Madrid, Spain) pretreated with 0.5% of PEI and treated with binding buffer (Tris-HCl 50 mM, EDTA 1 mM, MgCl2 10 mM, pH=7.4), after was filtered and washed four times with 250 μl wash buffer (Tris-HCl 50 mM, pH=7.4), before measuring in a microplate beta scintillation counter (Microbeta Trilux, PerkinElmer, Madrid, Spain).

[2] = target: 5-hydroxytryptamine receptor 2A (Homo sapiens, UniProt P28223); assay: Competition Binding in Human 5-HT2A Receptor
Sequence of 5-hydroxytryptamine receptor 2A (P28223 whole entry): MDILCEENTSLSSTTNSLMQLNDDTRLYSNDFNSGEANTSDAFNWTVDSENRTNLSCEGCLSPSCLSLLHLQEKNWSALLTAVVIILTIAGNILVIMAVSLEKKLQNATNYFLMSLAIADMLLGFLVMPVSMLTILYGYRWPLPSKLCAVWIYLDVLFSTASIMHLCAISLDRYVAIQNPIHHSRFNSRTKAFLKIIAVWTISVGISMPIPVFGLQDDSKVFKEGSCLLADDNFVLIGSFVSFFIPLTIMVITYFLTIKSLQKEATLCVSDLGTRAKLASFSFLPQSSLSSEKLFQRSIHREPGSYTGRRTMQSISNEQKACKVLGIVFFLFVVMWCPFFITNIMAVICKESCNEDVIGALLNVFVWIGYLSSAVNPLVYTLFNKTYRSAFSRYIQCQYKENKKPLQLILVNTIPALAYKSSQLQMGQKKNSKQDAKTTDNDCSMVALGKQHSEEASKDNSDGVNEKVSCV
Experimental: Serotonin 5-HT2A receptor competition binding experiments were carried out in a polypropilene 96-well plate. In each well was incubated 80 μg of membranes from CHO-5-HT2A cell line prepared in the laboratory (protein concentration=4337 μg/ml), 1 nM [3H]-Ketanserin (47.3 Ci/mmol, 1 mCi/ml, Perkin Elmer NET791250UC) and compounds studied and standard. Non-specific binding was determined in the presence of Methysergide 1 μM (Sigma M137). The reaction mixture (Vt: 250 μl/well) was incubated at 37° C. for 30 min, 200 μL was transfered to GF/B 96-well plate (Millipore, Madrid, Spain) pretreated with 0.5% of PEI and treated with binding buffer (Tris-HCl 50 mM, pH=7.4), after was filtered and washed six times with 250 μl wash buffer (Tris-HCl 50 mM, pH=6.6), before measuring in a microplate beta scintillation counter (Microbeta Trilux, PerkinElmer, Madrid, Spain).

Sequence of 5-hydroxytryptamine receptor 1B (P28222 whole entry): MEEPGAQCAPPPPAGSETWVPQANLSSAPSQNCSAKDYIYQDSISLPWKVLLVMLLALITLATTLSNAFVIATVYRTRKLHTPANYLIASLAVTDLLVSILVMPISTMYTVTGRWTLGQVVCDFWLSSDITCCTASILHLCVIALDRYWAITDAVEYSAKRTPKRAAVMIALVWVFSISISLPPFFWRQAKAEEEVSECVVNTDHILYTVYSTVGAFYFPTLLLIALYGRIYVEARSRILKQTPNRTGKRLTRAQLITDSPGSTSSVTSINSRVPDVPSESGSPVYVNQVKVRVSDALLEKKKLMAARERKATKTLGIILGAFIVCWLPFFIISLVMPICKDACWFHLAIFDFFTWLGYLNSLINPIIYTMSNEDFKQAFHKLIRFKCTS

Cc1nc(-c2ccc(-c3ccc(C(=O)Nc4cc(OCCN(C)C)c(Br)cn4)cn3)c(C3CC3)c2)no1 [US20240166639, Example 39]
Ki [1]: 0.4 nM
Ki [2]: 2500 nM
